Measured values: US7375168B2, “Protein compatible methods and compounds for controlling the morphology and shrinkage of silica derived from polyol-modified silanes” (McMaster University, priority 2002, dated 2008)
pIC50: −log10 of the molar value. Where two headings read alike, the source gives them in different places. Ends that are not written are not given here.

Columns and labels:
[1] = molecular target: T1, Src kinase, human recombinant (Homo sapiens, UniProt P12931); test: Src PTK inhibition, free and entrapped in GLTES/DGS silica, TR-FRET detection of peptide phosphorylation; format: biochemical; details: substrate P1716, ATP as in FIG. 29
T1 construct: purchased Sigma-Aldrich (Oakville, ON) S5439; host or cells: insect cells

[2] = molecular target: T2, dihydrofolate reductase (DHFR) (Escherichia coli, UniProt P0ABQ4); format: binding, E. coli; details: for elution time: 20 nM compounds, 100 nM fluorescein, 2 mM ammonium acetate; for elution / retention time: column with 50 pmol DHFR initial loading (FIG. 19 Panel B), compounds infused at 20 nM, fluorescein 100 nM
T2 construct: made in house

[3] = Src entrapped in GLTES/DGS derived silica, read-out: IC50 Entrapped in Silica
[4] = free Src in solution, read-out: IC50 Solution
[5] = FIG. 22 Panel A, column cut from one continuously filled capillary
[6] = FIG. 22 Panel B, second column from the same capillary

| Compound | pIC50 [1, 3] | pIC50 [1, 4] | elution time [2, 5] [min] | elution time [2, 6] [min] | elution / retention time [2] [min] |
| --- | --- | --- | --- | --- | --- |
| COc1cc2ncnc(Nc3ccc(Oc4ccccc4)cc3)c2cc1OC [Src Kinase Inhibitor I, 4-(4-phenoxyanilino)-6,7-dimethoxyquinazoline] | 6.10 to 6.22 | 6.15 to 6.30 |  |  |  |
| O=c1ccc2ccccc2o1 [coumarin] |  |  | 2.7 | 2.6 | 2 |
| Nc1nc2ncc(CNc3ccc(C(=O)N[C@@H](CCC(=O)O)C(=O)O)cc3)nc2c(=O)[nH]1 [folic acid] |  |  | 8.9 | 8.4 | 7 |
| YIYGSFK [YIYGSFK] | 2.85 to 3.00 | 2.92 to 3.10 |  |  |  |
